Experimental data as given in ChEMBL document CHEMBL3045272, “Synthesis and fungicidal activities of novel bis(trifluoromethyl)phenyl-based strobilurins” (J Agric Food Chem, 2008).
≈ marks a conversion by molar mass, not a printed value.

Legend:
[1] = tested on: Blumeria graminis; experiment: Fungicidal activity against Blumeria graminis infected compound pre-treated wheat plants assessed as disease preventive activity at 500 ppm measured after 1 or 2 weeks; assay type: functional
[2] = tested on: Blumeria graminis; experiment: Fungicidal activity against Blumeria graminis infected compound pre-treated wheat plants assessed as disease preventive activity measured after 1 or 2 weeks; assay type: functional, organism-based
[3] = tested on: Podosphaera fuliginea; experiment: Fungicidal activity against Podosphaera fuliginea infected cucumber plants exposed to compound treatment 1 day post infection assessed as disease curative activity at 3.12 mg/L measured after 1 or 2 weeks; assay type: functional
[4] = tested on: Blumeria graminis; experiment: Fungicidal activity against Blumeria graminis infected compound pre-treated wheat plants assessed as disease preventive activity at 3.1 ppm measured after 1 or 2 weeks; assay type: functional
[5] = tested on: Podosphaera fuliginea; experiment: Fungicidal activity against Podosphaera fuliginea infected compound pre-treated cucumber plants assessed as disease preventive activity at 0.78 mg/L measured after 1 or 2 weeks; assay type: functional
[6] = tested on: Podosphaera fuliginea; experiment: Fungicidal activity against Podosphaera fuliginea infected compound pre-treated cucumber plants assessed as disease preventive activity at 3.12 mg/L measured after 1 or 2 weeks; assay type: functional
[7] = tested on: Blumeria graminis; experiment: Fungicidal activity against Blumeria graminis infected compound pre-treated wheat plants assessed as disease preventive activity at 3.12 mg/L measured after 1 or 2 weeks; assay type: functional
[8] = tested on: Podosphaera fuliginea; experiment: Fungicidal activity against Podosphaera fuliginea infected compound pre-treated cucumber plants assessed as disease preventive activity at measured after 1 or 2 weeks; assay type: functional, organism-based
[9] = tested on: Podosphaera fuliginea; experiment: Fungicidal activity against Podosphaera fuliginea infected cucumber plants exposed to compound treatment 1 day post infection assessed as disease curative activity at 0.78 mg/L measured after 1 or 2 weeks; assay type: functional
[10] = tested on: Blumeria graminis; experiment: Fungicidal activity against Blumeria graminis infected compound pre-treated wheat plants assessed as disease preventive activity at 0.78 mg/L measured after 1 or 2 weeks; assay type: functional
[11] = tested on: Blumeria graminis; experiment: Fungicidal activity against Blumeria graminis infected wheat plants exposed to compound treatment 1 day post infection assessed as disease curative activity measured after 1 or 2 weeks; assay type: functional, organism-based
[12] = tested on: Blumeria graminis; experiment: Fungicidal activity against Blumeria graminis infected wheat plants exposed to compound treatment 1 day post infection assessed as disease curative activity at 1.56 mg/L measured after 1 or 2 weeks; assay type: functional
[13] = tested on: Blumeria graminis; experiment: Fungicidal activity against Blumeria graminis infected wheat plants exposed to compound treatment 1 day post infection assessed as disease curative activity at 0.78 mg/L measured after 1 or 2 weeks; assay type: functional
[14] = tested on: Blumeria graminis; experiment: Fungicidal activity against Blumeria graminis infected compound pre-treated wheat plants assessed as disease preventive activity at 1.56 mg/L measured after 1 or 2 weeks; assay type: functional
[15] = tested on: Blumeria graminis; experiment: Fungicidal activity against Blumeria graminis infected wheat plants exposed to compound treatment 1 day post infection assessed as disease curative activity at 3.12 mg/L measured after 1 or 2 weeks; assay type: functional
[16] = tested on: Podosphaera fuliginea; experiment: Fungicidal activity against Podosphaera fuliginea infected compound pre-treated cucumber plants assessed as disease preventive activity at 6.25 mg/L measured after 1 or 2 weeks; assay type: functional
[17] = tested on: Blumeria graminis; experiment: Fungicidal activity against Blumeria graminis infected compound pre-treated wheat plants assessed as disease preventive activity at 100 ppm measured after 1 or 2 weeks; assay type: functional
[18] = tested on: Podosphaera fuliginea; experiment: Fungicidal activity against Podosphaera fuliginea infected cucumber plants exposed to compound treatment 1 day post infection assessed as disease curative activity measured after 1 or 2 weeks; assay type: functional, organism-based
[19] = tested on: Podosphaera fuliginea; experiment: Fungicidal activity against Podosphaera fuliginea infected compound pre-treated cucumber plants assessed as disease preventive activity at 1.56 mg/L measured after 1 or 2 weeks; assay type: functional
[20] = tested on: Podosphaera fuliginea; experiment: Fungicidal activity against Podosphaera fuliginea infected cucumber plants exposed to compound treatment 1 day post infection assessed as disease curative activity at 1.56 mg/L measured after 1 or 2 weeks; assay type: functional
[21] = tested on: Blumeria graminis; experiment: Fungicidal activity against Blumeria graminis infected wheat plants exposed to compound treatment 1 day post infection assessed as disease curative activity at 6.25 mg/L measured after 1 or 2 weeks; assay type: functional
[22] = tested on: Blumeria graminis; experiment: Fungicidal activity against Blumeria graminis infected compound pre-treated wheat plants assessed as disease preventive activity at 6.2 ppm measured after 1 or 2 weeks; assay type: functional
[23] = tested on: Podosphaera fuliginea; experiment: Fungicidal activity against Podosphaera fuliginea infected cucumber plants exposed to compound treatment 1 day post infection assessed as disease curative activity at 6.25 mg/L measured after 1 or 2 weeks; assay type: functional
[24] = tested on: Blumeria graminis; experiment: Fungicidal activity against Blumeria graminis infected compound pre-treated wheat plants assessed as disease preventive activity at 1.5 ppm measured after 1 or 2 weeks; assay type: functional
[25] = tested on: Blumeria graminis; experiment: Fungicidal activity against Blumeria graminis infected compound pre-treated wheat plants assessed as disease preventive activity at 6.25 mg/L measured after 1 or 2 weeks; assay type: functional

CO/C=C(/C(=O)OC)c1ccccc1CO/N=C(/c1cc(C(F)(F)F)cc(C(F)(F)F)c1)S(C)(=O)=O
Activity [1]: 70%

CO/N=C(/C(=O)OC)c1ccccc1CO/N=C(\SC(C)C)c1cc(C(F)(F)F)cc(C(F)(F)F)c1
Activity [1]: 85%

CO/C=C(/C(=O)OC)c1ccccc1CO/N=C(\OC)c1cc(C(F)(F)F)cc(C(F)(F)F)c1
EC50 [2]: 1.2 µg/mL (≈ 2.44 µM) | EC90 [2]: 2.8 µg/mL (≈ 5.7 µM) | Activity [3]: 100% | Activity [4]: 100% | Activity [5]: 59% | Activity [6]: 100% | Activity [7]: 81% | EC50 [8]: 0.8 µg/mL (≈ 1.63 µM) | EC90 [8]: 1.5 µg/mL (≈ 3.05 µM) | Activity [9]: 56% | Activity [10]: 20% | EC50 [11]: 1.5 µg/mL (≈ 3.05 µM) | EC90 [11]: 4.8 µg/mL (≈ 9.77 µM) | Activity [12]: 50% | Activity [13]: 20% | Activity [14]: 60% | Activity [1]: 100% | Activity [15]: 82% | Activity [16]: 100% | Activity [17]: 100% | EC50 [18]: 0.8 µg/mL (≈ 1.63 µM) | EC90 [18]: 1.4 µg/mL (≈ 2.85 µM) | Activity [19]: 80% | Activity [20]: 92% | Activity [21]: 94% | Activity [22]: 100% | Activity [23]: 100% | Activity [24]: 98% | Activity [25]: 100%

CO/C=C(/C(=O)OC)c1ccccc1CO/N=C(\SC)c1cc(C(F)(F)F)cc(C(F)(F)F)c1
Activity [4]: 93% | Activity [1]: 100% | Activity [17]: 100% | Activity [22]: 98% | Activity [24]: 75%

CO/C=C(/C(=O)OC)c1ccccc1CO/N=C(\SC(C)C)c1cc(C(F)(F)F)cc(C(F)(F)F)c1
Activity [1]: 85%

CO/N=C(/C1=NOCCO1)c1ccccc1CO/N=C(\OC)c1cc(C(F)(F)F)cc(C(F)(F)F)c1
EC50 [2]: 0.9 µg/mL (≈ 1.73 µM) | EC90 [2]: 2 µg/mL (≈ 3.85 µM) | Activity [3]: 100% | Activity [4]: 96% | Activity [5]: 55% | Activity [6]: 100% | Activity [7]: 98% | EC50 [8]: 0.8 µg/mL (≈ 1.54 µM) | EC90 [8]: 1.6 µg/mL (≈ 3.08 µM) | Activity [9]: 60% | Activity [10]: 30% | EC50 [11]: 1 µg/mL (≈ 1.93 µM) | EC90 [11]: 2.4 µg/mL (≈ 4.62 µM) | Activity [12]: 70% | Activity [13]: 35% | Activity [14]: 75% | Activity [1]: 100% | Activity [15]: 90% | Activity [16]: 100% | Activity [17]: 100% | EC50 [18]: 0.8 µg/mL (≈ 1.54 µM) | EC90 [18]: 1.5 µg/mL (≈ 2.89 µM) | Activity [19]: 75% | Activity [20]: 80% | Activity [21]: 100% | Activity [22]: 100% | Activity [23]: 100% | Activity [24]: 95% | Activity [25]: 100%

COC(=O)N(OC)c1ccccc1CO/N=C(\OC)c1cc(C(F)(F)F)cc(C(F)(F)F)c1
Activity [4]: 60% | Activity [1]: 100% | Activity [17]: 100% | Activity [22]: 80% | Activity [24]: 10%

COC(=O)N(OC)c1ccccc1CO/N=C(\SC)c1cc(C(F)(F)F)cc(C(F)(F)F)c1
Activity [4]: 30% | Activity [1]: 90% | Activity [17]: 90% | Activity [22]: 65%

CN/C(=N\OCc1ccccc1/C(=C\OC)C(=O)OC)c1cc(C(F)(F)F)cc(C(F)(F)F)c1
Activity [4]: 65% | Activity [1]: 100% | Activity [17]: 100% | Activity [22]: 90% | Activity [24]: 25%

CCS/C(=N\OCc1ccccc1/C(=N\OC)C(=O)OC)c1cc(C(F)(F)F)cc(C(F)(F)F)c1
Activity [1]: 85%

CO/C=C(/C(=O)OC)c1ccccc1CO/N=C(/c1cc(C(F)(F)F)cc(C(F)(F)F)c1)[S+](C)[O-] (stereo not drawn)
Activity [1]: 70%

CO/N=C(/C(=O)OC)c1ccccc1CO/N=C(\N)c1cc(C(F)(F)F)cc(C(F)(F)F)c1
Activity [1]: 30%

CCO/C(=N\OCc1ccccc1/C(=C\OC)C(=O)OC)c1cc(C(F)(F)F)cc(C(F)(F)F)c1
Activity [4]: 60% | Activity [1]: 100% | Activity [17]: 100% | Activity [22]: 90% | Activity [24]: 35%
